From patent US11591355B2 (Peloton Therapeutics, Inc., priority 2017, dated 2023)
pIC50: −log10 of the molar value. Where two headings read alike, the source gives them in different places.

Key:
Human CD73 = molecular target: T1, Human CD73 (Homo sapiens, UniProt P21589); experiment: CD73 Enzyme Assay; type: biochemical; details: read-out: CD73 Enzyme Assay IC50
T1 construct: purchased R&D Systems; host or cells: CHO cells
T1 sequence (P21589 27-549): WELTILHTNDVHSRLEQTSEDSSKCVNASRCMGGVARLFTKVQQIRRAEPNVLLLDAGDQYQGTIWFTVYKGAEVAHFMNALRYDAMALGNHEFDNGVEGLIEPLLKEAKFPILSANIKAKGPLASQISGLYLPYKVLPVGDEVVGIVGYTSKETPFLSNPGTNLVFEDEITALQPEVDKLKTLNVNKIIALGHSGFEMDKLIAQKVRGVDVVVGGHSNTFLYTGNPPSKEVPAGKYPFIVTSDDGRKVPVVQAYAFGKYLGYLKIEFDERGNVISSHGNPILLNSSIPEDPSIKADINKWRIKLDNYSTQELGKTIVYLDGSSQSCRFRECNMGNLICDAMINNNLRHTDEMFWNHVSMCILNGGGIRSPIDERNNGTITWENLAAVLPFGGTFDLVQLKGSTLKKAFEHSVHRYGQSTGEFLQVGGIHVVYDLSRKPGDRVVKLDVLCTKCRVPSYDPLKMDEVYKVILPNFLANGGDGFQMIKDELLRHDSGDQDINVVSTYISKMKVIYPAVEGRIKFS

[1] = molecular target: T2, CD73 on U138 human neuroglioma cells (Homo sapiens, UniProt P21589); experiment: CD73 Cell-Based Assay
T2 construct: U138 cells were obtained from ATCC and cultured in DMEM with 10% FBS; host or cells: U138 human neuroglioma cells
T2 sequence (P21589 27-549): T1 sequence (P21589 27-549)
Summary of the method: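 Whole U138 cells washed free of phosphate were incubated with 200 μM AMP (mixture concentration before equal-volume addition) plus compound in HEPES-buffered saline, pH 7.4, for 2 h at 37 °C, 5% CO2. Adenosine-forming activity read as inorganic phosphate released into supernatant by malachite green.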

[2] = 0.25 nM hCD73, 25 μM AMP, kinetic read at 360 nm
[3] = U138 cells, AMP substrate, 2 hours at 37° C., inorganic phosphate by malachite green

| pIC50 (Human CD73; [2]) | pIC50 [1, 3] | Structure (SMILES) | pIC50 (Human CD73) | pIC50 [1] |
| --- | --- | --- | --- | --- |
| > 8.00 | > 8.00 | O=P(O)(O)CS(=O)(=O)C[C@H]1O[C@@H](n2ccc3c(NC4CCCCC4)nc(Cl)nc32)[C@H](O)[C@@H]1O [Compound 174, [(2S,3S,4R,5R)-5-[2-chloro-4-(cyclohexyl-amino)pyrrolo[2,3-d]-pyrimidin-7-yl]-3,4-dihydroxy-tetrahydro-furan-2-yl]methyl-sulfonylmethylphos-phonic acid] | – | – |
| > 8.00 | > 8.00 | CC(C)N(C)c1nc(Cl)nc2c1ccn2[C@@H]1O[C@H](CS(=O)(=O)CP(=O)(O)O)[C@@H](O)[C@H]1O [Compound 177, [(2S,3S,4R,5R)-5-[2-chloro-4-[isopropyl-(methyl)amino]-pyrrolo[2,3-d]-pyrimidin-7-yl]-3,4-dihydroxy-tetrahydro-furan-2-yl]methyl-sulfonylmethylphos-phonic acid] | – | – |
| > 8.00 | > 8.00 | C[C@@H](Nc1nc(Cl)nc2c1ccn2[C@@H]1O[C@H](CS(=O)(=O)CP(=O)(O)O)[C@@H](O)[C@H]1O)c1ccc(F)cc1F [Compound 178, (((((2S,3S,4R,5R)-5-(2-chloro-4-(((R)-1-(2,4-difluorophenyl)ethyl)amino)-7H-pyrrolo[2,3-d]pyrimidin-7-yl)-3,4-dihydroxytetrahydrofuran-2-yl)methyl)sulfonyl)methyl)phosphonic acid] | – | – |
| > 8.00 | > 8.00 | C[C@@H](Nc1nc(Cl)nc2c1ccn2[C@@H]1O[C@H](CS(=O)(=O)CP(=O)(O)O)[C@@H](O)[C@H]1O)c1ccc(Cl)cc1 [Compound 179, [(2S,3S,4R,5R)-5-[2-chloro-4-[[(1R)-1-(4-chlorophenyl)ethyl]-amino]pyrrolo[2,3-d]-pyrimidin-7-yl]-3,4-dihydroxy-tetrahydro-furan-2-yl]methyl-sulfonylmethylphos-phonic acid] | – | – |
| > 8.00 | > 8.00 | C[C@H](Nc1nc(Cl)nc2c1ccn2[C@@H]1O[C@H](CS(=O)(=O)CP(=O)(O)O)[C@@H](O)[C@H]1O)c1ccc(C#N)cc1 [Compound 181, [(2S,3S,4R,5R)-5-[2-chloro-4-[[(1S)-1-(4-cyanophenyl)ethyl]-amino]pyrrolo[2,3-d]-pyrimidin-7-yl]-3,4-dihydroxy-tetrahydro-furan-2-yl]methyl-sulfonylmethylphos-phonic acid] | – | – |
| > 8.00 | > 8.00 | O=P(O)(O)CS(=O)(=O)C[C@H]1O[C@@H](n2ccc3c(NC4CCC(F)(F)CC4)nc(Cl)nc32)[C@H](O)[C@@H]1O [Compound 182, [(2S,3S,4R,5R)-5-[2-chloro-4-[(4,4-difluoro-cyclohexyl)amino]-pyrrolo[2,3-d]-pyrimidin-7-yl]-3,4-dihydroxy-tetrahydro-furan-2-yl]methyl-sulfonylmethylphos-phonic acid] | – | – |
| < 6.00 | < 6.00 | CC(C)(C)C(=O)OCOP(=O)(COC[C@H]1O[C@@H](n2ccc3c(NC4CCCC4)nc(Cl)nc32)[C@H](O)[C@@H]1O)OCOC(=O)C(C)(C)C [Compound 187, [[(2R,3S,4R,5R)-5-[2-chloro-4-(cyclopentyl-amino)pyrrolo[2,3-d]-pyrimidin-7-yl]-3,4-dihydroxy-tetrahydro-furan-2-yl]methoxy-methyl-(2,2-dimethyl-propanoyloxymethoxy)-phosphoryl]oxymethyl 2,2-dimethylpropanoate] | – | – |
| > 8.00 | > 8.00 | O=P(O)(O)COC[C@H]1O[C@@H](n2ccc3c(N4CCCC4)nc(Cl)nc32)[C@H](O)[C@@H]1O [Compound 190, [(2R,3S,4R,5R)-5-(2-chloro-4-pyrrolidin-1-yl-pyrrolo[2,3-d]-pyrimidin-7-yl)-3,4-dihydroxy-tetrahydro-furan-2-yl]methoxy-methylphosphonic acid] | – | – |

The remaining lines, values behind:

| Structure (SMILES) | pIC50 (Human CD73; [2]) | pIC50 [1, 3] | pIC50 (Human CD73) | pIC50 [1] |
| --- | --- | --- | --- | --- |
| O=P(O)(O)CS(=O)(=O)C[C@H]1O[C@@H](n2ccc3c(N4CC5CC5C4)nc(Cl)nc32)[C@H](O)[C@@H]1O (stereo partly drawn) [Compound 175, [(2S,3S,4R,5R)-5-[4-(3-azabicyclo[3.1.0]-hexan-3-yl)-2-chloro-pyrrolo[2,3-d]-pyrimidin-7-yl]-3,4-dihydroxy-tetrahydro-furan-2-yl]methyl-sulfonylmethylphos-phonic acid] | 7.00 to 8.00 | 7.00 to 8.00 | – | – |
| CCNc1nc(Cl)nc2c1ccn2[C@@H]1O[C@H](CS(=O)(=O)CP(=O)(O)O)[C@@H](O)[C@H]1O [Compound 176, [(2S,3S,4R,5R)-5-[2-chloro-4-(ethylamino)-pyrrolo[2,3-d]-pyrimidin-7-yl]-3,4-dihydroxy-tetrahydro-furan-2-yl]methyl-sulfonylmethylphos-phonic acid] | 7.00 to 8.00 | 7.00 to 8.00 | – | – |
| C[C@@H](Nc1nc(Cl)nc2c1ccn2[C@@H]1O[C@H](CS(=O)(=O)CP(=O)(O)O)[C@@H](O)[C@H]1O)c1cccc(C#N)c1 [Compound 180, [(2S,3S,4R,5R)-5-[2-chloro-4-[[(1R)-1-(3-cyanophenyl)ethyl]-amino]pyrrolo[2,3-d]-pyrimidin-7-yl]-3,4-dihydroxy-tetrahydro-furan-2-yl]methyl-sulfonylmethylphos-phonic acid] | > 8.00 | > 8.00 | – | – |
| C[C@H](Nc1nc(Cl)nc2c1ccn2[C@@H]1O[C@H](CS(=O)(=O)CP(=O)(O)O)[C@@H](O)[C@H]1O)c1ccc(F)cc1F [Compound 183, [(2S,3S,4R,5R)-5-[2-chloro-4-[[(1S)-1-(2,4-difluorophenyl)ethyl]-amino]pyrrolo[2,3-d]-pyrimidin-7-yl]-3,4-dihydroxy-tetrahydro-furan-2-yl]methyl-sulfonylmethylphos-phonic acid] | > 8.00 | > 8.00 | – | – |
| CCOP(=O)(O)COC[C@H]1O[C@@H](n2ccc3c(NC4CCCC4)nc(Cl)nc32)[C@H](O)[C@@H]1O [Compound 184, [(2R,3S,4R,5R)-5-[2-chloro-4-(cyclopentyl-amino)pyrrolo[2,3-d]-pyrimidin-7-yl]-3,4-dihydroxy-tetrahydro-furan-2-yl]methoxy-methylethoxy-phos-phinic acid] | – | – | < 6.00 | 6.00 to 7.00 |
| CN(c1nc(Cl)nc2c1ncn2[C@@H]1O[C@H](COCP(=O)(O)O)[C@@H](O)[C@H]1O)C1CCCC1 [Compound 186, [(2R,3S,4R,5R)-5-[2-chloro-6-[cyclopentyl-(methyl)amino]purin-9-yl]-3,4-dihydroxy-tetrahydrofuran-2-yl]-methoxymethylphos-phonic acid] | > 8.00 | 7.00 to 8.00 | – | – |
| CC(C)(C)C(=O)OCOP(=O)(O)COC[C@H]1O[C@@H](n2ccc3c(NC4CCCC4)nc(Cl)nc32)[C@H](O)[C@@H]1O [Compound 188, [(2R,3S,4R,5R)-5-[2-chloro-4-(cyclopentyl-amino)pyrrolo[2,3-d]-pyrimidin-7-yl]-3,4-dihydroxy-tetrahydro-furan-2-yl]methoxy-methyl-(2,2-dimethyl-propanoyloxymethoxy)-phosphinic acid] | > 8.00 | 6.00 to 7.00 | – | – |
| C[C@@H](Nc1nc(C#N)nc2c1ccn2[C@@H]1O[C@H](COCP(=O)(O)O)[C@@H](O)[C@H]1O)c1ccc(F)cc1F [Compound 189, [(2R,3S,4R,5R)-5-[2-cyano-4-[[(1R)-1-(2,4-difluorophenyl)ethyl]-amino]pyrrolo[2,3-d]-pyrimidin-7-yl]-3,4-dihydroxy-tetrahydro-furan-2-yl]methoxy-methylphosphonic acid] | > 8.00 | > 8.00 | – | – |
